Experimental data taken from patent US6818203B2, “Use of perfluoroalkyl-containing metal complexes as contrast media in MR-imaging for visualization of plaque, tumors and necroses” (Schering Aktiengesellschaft, priority 2000, dated 2004).

Columns and labels:
[1] = proton relaxivity in plasma (R^1), Minispec P 20; type: physicochemical; conditions: 40° C., 0.47 tesla, bovine plasma
Outline: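 Measured at 40° C. and 0.47 tesla in bovine plasma, with contrast medium at 0.30–1.16 mmol/l. T1 obtained by inversion recovery (180°-TI-90°) over eight measuring points per sequence; relaxivity given in l/mmol·s.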

iliac lymph nodes = assay: lymph node visualization (MRT) after intravenous administration in rats; type: in vivo; conditions: for signal in healthy lymph node tissue (T1-weighted gradient-echo images): very shortly after injection
Method: (§1) By way of example, the pictures in FIG. 8 show MR images of iliac lymph nodes precontrast and up to 60 minutes after intravenous administration of 100 μmol of Gd/kg of body weight of metal complex X in rats. […] The enhancement was thus 263% at the time of 15 minutes p.i. and 254% at the time of 60 minutes p.i.
as §1, with “11” for “8”, “200” for “100”, “V” for “X”, “147%” for “263%”, “230%” for “254%”
as §1, with “17” for “8”, “200” for “100”, “III” for “X”, “320%” for “263%”, “401%” for “254%”

Compound	R^1 Plasma (relaxivity) [1]	enhancement in lymph node tissue (iliac lymph nodes; 15 minutes p.i., 100 μmol of Gd/kg i.v.)	enhancement in lymph node tissue (iliac lymph nodes; 60 minutes p.i., 100 μmol of Gd/kg i.v.)	signal in healthy lymph node tissue (T1-weighted gradient-echo images) (iliac lymph nodes; 100 μmol of Gd/kg i.v.)	enhancement in lymph node tissue (iliac lymph nodes; 15 minutes p.i., 200 μmol of Gd/kg i.v.)	enhancement in lymph node tissue (iliac lymph nodes; 60 minutes p.i., 200 μmol of Gd/kg i.v.)	signal in healthy lymph node tissue (T1-weighted gradient-echo images) (iliac lymph nodes; 200 μmol of Gd/kg i.v.)
COCCN(CCOCCC(F)(F)C(F)(F)C(F)(F)C(F)(F)C(F)(F)C(F)(F)C(F)(F)C(F)(F)F)C(=O)CNC(=O)C(C)N1CCN(CC(=O)[O-])CCN(CC(=O)[O-])CCN(CC(=O)[O-])CC1.[Gd+3] (centres unmarked) [metal complex X]	25.7 mmol⁻¹ s⁻¹	263%	254%	strong signal rise	–	–	–
O=C([O-])CN1CCN(CC(=O)[O-])CCN(CC(O)CNC(=O)CCCC(=O)N2CCN(C(F)(F)C(F)(F)C(F)(F)C(F)(F)C(F)(F)C(F)(F)C(F)(F)C(F)(F)F)CC2)CCN(CC(=O)[O-])CC1.[Gd+3] (centres unmarked) [metal complex III]	24.9 mmol⁻¹ s⁻¹	–	–	–	320%	401%	strong signal rise
